Broadly, the melting point is the temperature, or range, at which the solid turns liquid.

From patent publication USRE47689E1, “Compounds for treating spinal muscular atrophy” (PTC Therapeutics, Inc., priority 2011, dated 2019) come the findings set out here.

For one data set, the system named is Smn protein. The experiment in a line: Smn protein assay in cultured cells (SMN HTRF). It counts as cell-based, human. To be noted: 48 hours; for EC1.5x (concentration giving 1.5-fold Smn protein increase): SMA Type 1 patient fibroblast cells (GM03813), 7-point concentration curve, SMN HTRF, concentration producing 1.5 times Smn protein vs DMSO vehicle control, read-out: EC1.5x for Smn protein expression; for maximum fold (Fold) increase of Smn protein: SMA patient fibroblast cells, 7-point concentration data, fold increase relative to vehicle control (SMN HTRF). The essentials:
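Smn in SMA fibroblast lysates, measured by anti-SMN HTRF after 48 h compound exposure; EC1.5x from fold change over vehicle.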
(In general: TR-FRET usually uses a lanthanide donor and a delayed reading to cut background.)

The subject of data set [1] is SMN2 minigene (full length SMN2 minigene mRNA containing SMN2 exon 7). Briefly: SMN2 minigene mRNA splicing RT-qPCR assay in cultured cells. Type of data set: cell-based, human. The settings on record: Homo sapiens, HEK293-H, read-out: EC1.5x for production of full length SMN2 mRNA. Summed up: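 Lysates → one-step RT-qPCR, minigene-specific primers (0.4 μM final) + GAPDH multiplex, 40 cycles. FL/GAPDH vs DMSO; EC1.5x, star-binned.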

[2] abbreviates: HEK293H cells stably transfected with SMN2-A minigene, 24 hours, 7-point concentration curve, 1.5-fold relative to vehicle-treated cells.

Read-outs that look alike come from different tables or passages of the source.

As for `Cc1cn2cc(-c3cc4ccc(N5C[C@@H](C)N(C)[C@@H](C)C5)cc4oc3=O)nc2c(C)n1` [Compound 605, 3-(6,8-dimethylimidazo[1,2-a]pyrazin-2-yl)-7-[(3R,5S)-3,4,5-trimethylpiperazin-1-yl]-2H-chromen-2-one], the melting point was 229 to 232 °C. Further, in the data set on Smn protein, the EC1.5x (concentration giving 1.5-fold Smn protein increase) was less than 300 nM and the “maximum fold (Fold) increase of Smn protein” value (“maximum fold (Fold) increase” below) is recorded as “***** (fold increase >1.65)”. Also, in data set [1] (setting [2]), the EC (1.5-fold) was less than 0.1 µM.
Regarding `Cc1cn2cc(-c3cc4ccc(CCCCN5CCC[C@@H]5CO)cc4oc3=O)nc2c(C)n1` [Compound 904, 3-(6,8-dimethylimidazo[1,2-a]pyrazin-2-yl)-7-{4-[(2R)-2-(hydroxymethyl)pyrrolidin-1-yl]butyl}-2H-chromen-2-one], the melting point fell in the range of 147 to 151 °C. In the data set on Smn protein, the EC1.5x (concentration giving 1.5-fold Smn protein increase) is 300 to 1000 nM; the “maximum fold (Fold) increase” value is “**** (fold increase between >1.5 and ≤1.65)”. In data set [1] (setting [2]), the EC (1.5-fold) lay within 0.1 to 0.3 µM.
As for `Cc1cn2cc(-c3cc4ccc(OCCNCCO)cc4oc3=O)nc2c(C)n1` [Compound 959, 3-(6,8-dimethylimidazo[1,2-a]pyrazin-2-yl)-7-{2-[(2-hydroxyethyl)amino]ethoxy}-2H-chromen-2-one], the melting point is 175 to 177 °C. Also, in the data set on Smn protein, the EC1.5x (concentration giving 1.5-fold Smn protein increase) lay within 300 to 1000 nM; the “maximum fold (Fold) increase” value was “*** (fold increase between >1.35 and ≤1.5)”. The EC (1.5-fold) in data set [1] (setting [2]) was less than 0.1 µM.
On to `CCN(CC)CCCc1ccc2cc(-c3cn4cc(C)nc(C)c4n3)c(=O)oc2c1` [Compound 969, 7-[3-(diethylamino)propyl]-3-(6,8-dimethylimidazo[1,2-a]pyrazin-2-yl)-2H-chromen-2-one], for which the melting point lay in the range of 165 to 168 °C. Further, in the data set with Smn protein, the EC1.5x (concentration giving 1.5-fold Smn protein increase) is less than 300 nM; the “maximum fold (Fold) increase” value is “**** (fold increase between >1.5 and ≤1.65)”. Also, the EC (1.5-fold) in data set [1] (setting [2]) was less than 0.1 µM.
The molecule `O=c1oc2cc(N3CCCNCC3)ccc2cc1-c1cn2ccncc2n1` [Compound 454, 7-(1,4-diazepan-1-yl)-3-(imidazo[1,2-a]pyrazin-2-yl)-2H-chromen-2-one] yielded a melting point of 247 to 249 °C. In addition, in the data set on Smn protein, the EC1.5x (concentration giving 1.5-fold Smn protein increase) is 3000 to 10000 nM; the “maximum fold (Fold) increase” value was “*** (fold increase between >1.35 and ≤1.5)”. The EC (1.5-fold) in data set [1] (setting [2]) was less than 0.1 µM.
`Cc1nccc(-c2cc3ccc(N4CCNCC4)cc3oc2=O)n1.Cl` [Cpd 274, 3-(2-methylpyrimidin-4-yl)-7-(piperazin-1-yl)-2H-chromen-2-one hydrochloride]: the melting point is 200 °C (dec.). The “maximum fold (Fold) increase” value in the data set with Smn protein was “** (fold increase between >1.2 and ≤1.35)”. The EC (1.5-fold) in data set [1] (24 h) was in the range of 1 to 3 µM.
For `CN1CCCN(c2ccc3cc(-c4cn5cc(F)cc(F)c5n4)c(=O)oc3c2)CC1` [Cpd 520, 3-(6,8-difluoroimidazo[1,2-a]pyridin-2-yl)-7-(4-methyl-1,4-diazepan-1-yl)-2H-chromen-2-one], the melting point was in the range of 255 to 260 °C. For the same molecule, the “maximum fold (Fold) increase” value in the data set on Smn protein is “** (fold increase between >1.2 and ≤1.35)”. Moreover, the EC (1.5-fold) in data set [1] (setting [2]) was 0.3 to 1 µM.
`C[C@@H]1CN(c2ccc3cc(-c4nc(C(F)(F)F)cs4)c(=O)oc3c2)CCN1` [Compound 240, 7-[(3R)-3-methylpiperazin-1-yl]-3-[4-(trifluoromethyl)-1,3-thiazol-2-yl]-2H-chromen-2-one] came in with a melting point of 234 to 238 °C. For the same molecule, the “maximum fold (Fold) increase” value in the data set on Smn protein was “* (maximum fold increase of ≤1.2)”. For the same molecule, the EC (1.5-fold) in data set [1] (setting [2]) was in the range of 1 to 3 µM.
As for `Cc1cc(F)c2nc(-c3cc4ccc(N5CCN[C@H](C)C5)cc4oc3=O)cn2c1` [Compound 420, 3-(8-fluoro-6-methylimidazo[1,2-a]pyridin-2-yl)-7-[(3R)-3-methylpiperazin-1-yl]-2H-chromen-2-one], the melting point was in the range of 246 to 254 °C. Further, in the data set with Smn protein, the EC1.5x (concentration giving 1.5-fold Smn protein increase) is less than 300 nM; the “maximum fold (Fold) increase” value is “**** (fold increase between >1.5 and ≤1.65)”. Besides, in data set [1] (setting [2]), the EC (1.5-fold) is less than 0.1 µM.
Molecule `COc1ccc(-c2cc3ccc(N4CCN[C@@H](C)C4)cc3oc2=O)cc1F` [Compound 545, 3-(3-fluoro-4-methoxyphenyl)-7-[(3S)-3-methylpiperazin-1-yl]-2H-chromen-2-one] yielded a melting point of 141 to 143 °C. Further, the “maximum fold (Fold) increase” value with Smn protein was “*** (fold increase between >1.35 and ≤1.5)”. The EC (1.5-fold) in data set [1] (setting [2]) lay within 0.1 to 0.3 µM.
Regarding `CN1CCN(c2ccc3cc(-c4cccc(OC5CCC5)n4)c(=O)oc3c2)CC1` [Compound 415, 3-[6-(cyclobutyloxy)pyridin-2-yl]-7-(4-methylpiperazin-1-yl)-2H-chromen-2-one], the melting point was in the range of 158 to 160 °C. Moreover, in the data set with Smn protein, the “maximum fold (Fold) increase” value is reported as “* (maximum fold increase of ≤1.2)”. For the same molecule, the EC (1.5-fold) in data set [1] (setting [2]) was in the range of 3 to 30 µM.
`Cc1cn2cc(-c3cc4ccc(CCCN(C)C)cc4oc3=O)ccc2n1` [Cpd 908, 7-[3-(dimethylamino)propyl]-3-(2-methylimidazo[1,2-a]pyridin-6-yl)-2H-chromen-2-one]: the melting point was in the range of 176 to 178 °C. In addition, in the data set with Smn protein, the EC1.5x (concentration giving 1.5-fold Smn protein increase) fell in the range of 300 to 1000 nM and the “maximum fold (Fold) increase” value is “***** (fold increase >1.65)”. Moreover, in data set [1] (setting [2]), the EC (1.5-fold) was 0.1 to 0.3 µM.
Molecule `Cc1ccn2cc(-c3cc4ccc(N5C[C@@H](C)N[C@@H](C)C5)cc4oc3=O)nc2c1` [Compound 133, 7-[(3R,5S)-3,5-dimethylpiperazin-1-yl]-3-(7-methylimidazo[1,2-a]pyridin-2-yl)-2H-chromen-2-one] registered a melting point of 210 to 217 °C. For the same molecule, in the data set on Smn protein, the EC1.5x (concentration giving 1.5-fold Smn protein increase) fell in the range of 3000 to 10000 nM; the “maximum fold (Fold) increase” value is “*** (fold increase between >1.35 and ≤1.5)”. Further, in data set [1] (setting [2]), the EC (1.5-fold) lay within 0.1 to 0.3 µM.
With `CCN1CCC(c2ccc3cc(-c4ccc5nc(C)cn5c4)c(=O)oc3c2)CC1` [Compound 827, 7-(1-ethylpiperidin-4-yl)-3-(2-methylimidazo[1,2-a]pyridin-6-yl)-2H-chromen-2-one], the melting point fell in the range of 268 to 270 °C. Moreover, in the data set on Smn protein, the EC1.5x (concentration giving 1.5-fold Smn protein increase) is less than 300 nM and the “maximum fold (Fold) increase” value is reported as “***** (fold increase >1.65)”. Besides, in data set [1] (setting [2]), the EC (1.5-fold) was less than 0.1 µM.
Molecule `COc1cccn2cc(-c3cc4ccc(N5CCCN(C)CC5)cc4oc3=O)nc12` [Compound 419, 3-(8-methoxyimidazo[1,2-a]pyridin-2-yl)-7-(4-methyl-1,4-diazepan-1-yl)-2H-chromen-2-one] showed a melting point of 212 to 215 °C. The “maximum fold (Fold) increase” value in the data set with Smn protein was “** (fold increase between >1.2 and ≤1.35)”. Moreover, in data set [1] (setting [2]), the EC (1.5-fold) is 0.3 to 1 µM.
On to `CN1CCN(c2ccc3cc(-c4nc5c(Cl)cccc5o4)c(=O)oc3c2)CC1` [Cpd 68, 3-(4-chloro-1,3-benzoxazol-2-yl)-7-(4-methylpiperazin-1-yl)-2H-chromen-2-one], for which the melting point lay within 229 to 231 °C. Moreover, the “maximum fold (Fold) increase” value with Smn protein was “** (fold increase between >1.2 and ≤1.35)”. In data set [1] (setting [2]), the EC (1.5-fold) lay in the range of 1 to 3 µM.
`O=c1oc2cc(N3CCNCC3)ccc2cc1-c1cn2cc(F)cc(F)c2n1` [Compound 532, 3-(6,8-difluoroimidazo[1,2-a]pyridin-2-yl)-7-(piperazin-1-yl)-2H-chromen-2-one] gave a melting point of 276 to 286 °C. Also, the “maximum fold (Fold) increase” value in the data set with Smn protein is listed as “* (maximum fold increase of ≤1.2)”. Further, the EC (1.5-fold) in data set [1] (setting [2]) was 0.3 to 1 µM.
Consider `Cc1cn2cc(-c3cc4ccc(N5CCNCC5)cc4oc3=O)cc2cn1` [Cpd 588, 3-(3-methylpyrrolo[1,2-a]pyrazin-7-yl)-7-(piperazin-1-yl)-2H-chromen-2-one], for which the melting point was 220 °C (dec.). Besides, in the data set with Smn protein, the EC1.5x (concentration giving 1.5-fold Smn protein increase) was less than 300 nM and the “maximum fold (Fold) increase” value is given as “***** (fold increase >1.65)”. In data set [1] (setting [2]), the EC (1.5-fold) is less than 0.1 µM.
Molecule `Cc1ccc2nc(-c3cc4ccc(N5CCCNCC5)cc4oc3=O)cn2n1` [Compound 631, 7-(1,4-diazepan-1-yl)-3-(6-methylimidazo[1,2-b]pyridazin-2-yl)-2H-chromen-2-one] returned a melting point of 252 to 255 °C. Moreover, the “maximum fold (Fold) increase” value in the data set with Smn protein is “* (maximum fold increase of ≤1.2)”. In data set [1] (setting [2]), the EC (1.5-fold) was 0.3 to 1 µM.
On to `O=c1oc2c(F)c(N3CCNCC3)ccc2cc1-c1ccccn1` [Compound 155, 8-fluoro-7-(piperazin-1-yl)-3-(pyridin-2-yl)-2H-chromen-2-one], for which the melting point is 147 to 153 °C. Further, the “maximum fold (Fold) increase” value in the data set with Smn protein is “* (maximum fold increase of ≤1.2)”. Moreover, the EC (1.5-fold) in data set [1] (24 h) was 3 to 30 µM.
For the molecule `O=c1oc2cc(N3CCCNCC3)ccc2cc1-c1cn2ccc(C(F)(F)F)cc2n1` [Compound 275, 7-(1,4-diazepan-1-yl)-3-[7-(trifluoromethyl)imidazo[1,2-a]pyridin-2-yl]-2H-chromen-2-one], the melting point lay within 253 to 262 °C. For the same molecule, the “maximum fold (Fold) increase” value in the data set with Smn protein is “* (maximum fold increase of ≤1.2)”. Further, the EC (1.5-fold) in data set [1] (setting [2]) is 0.3 to 1 µM.
